Columns and labels:
[1] = test system: breast adenocarcinoma (MCF7); experiment: 96 h SRB growth inhibition assay, MCF7; format: cell-based; conditions: Homo sapiens
Procedure: (§1) Compounds were screened with a 96 h SRB (sulforhodamine B) assay for their antiproliferative activity in a panel of human cancer cell lines comprising lung adenocarcinoma (A549), breast adenocarcinoma (MCF7), and PDAC (MIA PaCa-2 and PANC-1) cell lines, as well as a fetal lung fibroblast-like nononcogenic control cell line (WI-38) (Figure 1f). […] Gemcitabine is also active in these lines at low nanomolar levels, although less so in MIA PaCa-2 (IC50 19 ± 5 nM) and more so in BX-PC3 cells (6 ± 2 nM).
(§2) All cell lines were purchased from ATCC and maintained in appropriate medium supplemented with 10% fetal bovine serum (Invitrogen, UK), 2 mM L-glutamine (Invitrogen, Netherlands), and other components as specified by the suppliers. Cell lines were maintained at 37 °C, 5% CO2, and routinely passaged. Drugs were dissolved in H2O and filtered through 0.22 μm pore-size filter units (stock 10 mM) before addition to appropriate cell line media. Cellular growth inhibition was measured using the sulforhodamine B (SRB) assay in 96-well plates as described previously.[78] The 50% inhibitory concentrations (IC50) were determined by taking the mean absorbance at 540 nm for each drug concentration expressed as a percentage of the absorbance of untreated control wells.

[2] = Aqueous solubility and pH of the salt; format: physicochemical; conditions: formate salt
From the text: The synthetic approach to the trisubstituted series adapts previously published procedures to simplify purification and increase yields of both intermediates and final compounds (Scheme 1). 5,5-Dimethyl-1,3-dibromohydantoin was used for the regioselective bromination of the starting material, enabling more efficient and convenient purification. The separation of final products was achieved using column chromatography, giving a 26% overall yield for CM03.
CM03 was then converted to a mixed hydrochloride/formate salt in order to enhance its aqueous solubility. At a concentration of 5 mg/mL, the pH of the CM03 salt solution was 6.95.

[3] = test system: MIA PaCa-2 pancreatic tumor xenograft; set-up: method as in PMID 26077929; conditions: cited from earlier work
[4] = biological target: hERG (Homo sapiens, UniProt Q12809); experiment: hERG liability (unpublished data)
Sequence of hERG (Q12809 whole entry): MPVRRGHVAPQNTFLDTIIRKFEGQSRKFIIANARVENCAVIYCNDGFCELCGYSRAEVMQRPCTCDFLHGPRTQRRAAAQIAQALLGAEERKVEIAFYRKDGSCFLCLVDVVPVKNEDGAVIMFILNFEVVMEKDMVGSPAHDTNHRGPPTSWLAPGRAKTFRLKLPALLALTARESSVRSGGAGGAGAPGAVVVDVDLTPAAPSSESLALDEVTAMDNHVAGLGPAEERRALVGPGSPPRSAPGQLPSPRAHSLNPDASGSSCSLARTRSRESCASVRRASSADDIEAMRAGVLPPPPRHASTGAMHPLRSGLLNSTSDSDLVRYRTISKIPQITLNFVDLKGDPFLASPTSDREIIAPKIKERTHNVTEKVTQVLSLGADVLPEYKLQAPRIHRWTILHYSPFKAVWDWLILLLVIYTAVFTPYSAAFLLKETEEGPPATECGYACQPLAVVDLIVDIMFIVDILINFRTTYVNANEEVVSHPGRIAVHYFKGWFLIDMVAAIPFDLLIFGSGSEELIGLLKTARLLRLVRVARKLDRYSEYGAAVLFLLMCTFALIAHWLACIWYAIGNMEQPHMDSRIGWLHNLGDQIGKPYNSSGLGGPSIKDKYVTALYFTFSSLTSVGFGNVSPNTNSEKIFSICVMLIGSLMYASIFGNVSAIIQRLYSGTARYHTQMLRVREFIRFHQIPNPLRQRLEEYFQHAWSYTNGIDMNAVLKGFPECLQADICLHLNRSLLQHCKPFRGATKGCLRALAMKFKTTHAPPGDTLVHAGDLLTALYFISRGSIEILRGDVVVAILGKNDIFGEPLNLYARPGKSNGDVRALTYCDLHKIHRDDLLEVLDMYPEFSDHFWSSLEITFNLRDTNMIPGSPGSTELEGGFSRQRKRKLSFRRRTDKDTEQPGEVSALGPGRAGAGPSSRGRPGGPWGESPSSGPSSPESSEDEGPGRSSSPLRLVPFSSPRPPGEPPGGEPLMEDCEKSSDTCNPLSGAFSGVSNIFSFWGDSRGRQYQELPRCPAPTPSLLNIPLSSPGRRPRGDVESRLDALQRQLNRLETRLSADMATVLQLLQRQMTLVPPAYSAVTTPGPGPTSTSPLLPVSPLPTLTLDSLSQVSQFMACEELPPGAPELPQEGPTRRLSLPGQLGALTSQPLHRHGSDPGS

[5] = test system: PDAC PANC-1 cells; experiment: 96 h SRB growth inhibition assay, PANC-1; format: cell-based; conditions: Homo sapiens
Procedure: as §1, §2

[6] = test system: MIA PaCa-2 pancreatic tumor xenograft; experiment: Subcutaneous MIA PaCa-2 pancreatic tumor xenograft therapy study; format: in vivo; conditions: 15 mg/kg IV twice weekly for 28 days
Procedure: To determine if the in vitro activity of CM03 was paralleled in vivo, we explored the activity of CM03 in a mouse xenograft model of PDAC. We have previously reported that the maximum tolerated dosage (MTD) for intravenous (IV) administration of MM41 is 25 mg/kg.[33] CM03 was well tolerated, up to a dosage of 45–50 mg/kg, as judged by a dose-escalation MTD study. A therapeutic schedule of two CM03 intravenous (IV) doses was explored using a subcutaneous MIA PaCa-2 pancreatic tumor xenograft model derived from the human cell line used in the cell growth inhibition studies. A group size of eight CD-1 nude mice was used, and dosing was conducted at 10 and 15 mg/kg, each twice weekly, over a period of 4 weeks (28 days: 8 doses). Two further groups were given either MM41 or gemcitabine at 15 mg/kg and received the same dose regimen. […] IVIS imaging of treated mice was performed by taking account of the intrinsic fluorescence of CM03. […] Thus, in contrast to MM41 and gemcitabine, the higher-dose CM03 treatment results in a statistically significant (p < 0.001) antitumor effect, which persisted long after dosing had ceased, up to the termination of the xenograft experiment (62 days).
For therapy studies, female CD-1 nude mice (2–3 months old, weighing 20–25 g) were injected subcutaneously with 5 × 10^6 MIA PaCa-2 cells in the right flank (unsupplemented RPMI + Matrigel). When the tumors were established (approximately 13 days, mean size 0.05 cm^3), the mice were divided into five treatment groups with eight mice/group. The MM41 and CM03 samples were dissolved directly in saline to the required concentrations and administered IV. Tumor size was measured weekly by calliper using the π-based ellipsoid volume formula (length × width × height × π/6) every 3–4 days, and the mice were also weighed and examined at the same time to determine any signs of toxicity from the drug.
• Group 1:15 mg/kg of gemcitabine (Sigma), twice weekly dose. • Group 2:15 mg/kg of MM41, twice weekly dose. • Group 3:10 mg/kg of CM03, twice weekly dose. • Group 4:15 mg/kg of CM03, twice weekly dose. • Group 5: saline only, twice weekly dose.
The xenograft data was analyzed using Student’s t test (GraphPad Inc.). Responses were considered to be significant for those with probabilities (p) less than 5% (p < 0.05). Mice were culled if there was any sign of tumor ulceration, if tumor volume exceeded 1.5 cm^3, or if a weight loss over 20% of initial body weight was observed. Samples of liver, kidney, and spleen from each animal in the CM03 (15 mg/kg) and untreated control groups were excised at the end of the therapy experiment, then fixed in 10% neutral buffered formalin for at least 48 h prior to processing and paraffin embedding. Tissue slices were stained with hematoxylin and eosin and assessed visually for any obvious differences compared with controls, indicative of toxicity and tissue damage. For the imaging study mice were anesthetized using isoflurane and imaged using the IVIS preclinical imaging system from PerkinElmer. Images were captured after 4 h following intravenous administration of CM03 using Cy5.5 excitation for 5 s.

[7] = test system: fetal lung fibroblast-like nononcogenic control cell line (WI-38); experiment: 96 h SRB growth inhibition assay, WI-38; format: cell-based, human; conditions: Homo sapiens, WI-38; SMILES csv supplement; read-out: WI-30 IC50
Procedure: as §1, §2

CN1CCN(CCCNc2cc3c4c(c(NCCCN5CCN(C)CC5)cc5c4c2C(=O)N(CCCN2CCOCC2)C5=O)C(=O)N(CCCN2CCOCC2)C3=O)CC1 [MM41, 4,9-bis((3-(4-methylpiperazin-1-yl)propyl)amino)-2,7-bis(3-morpholinopropyl)benzo[lmn][3,8]phenanthroline-1,3,6,8(2H,7H)-tetraone, reference compound]
IC50 [1]: 70 ± 10 nM | water solubility [2]: freely water-soluble | reduction of tumor volume in a PDAC xenograft model [3]: ~80% | hERG liabilities [4]: neither MM41 nor CM03 show significant hERG liabilities | IC50 [5]: 3 ± 1 nM | MTV ± SEM (Day 29) [6]: 0.05 ± 0.02 cm^3 | MTV ± SEM (Day 62) [6]: 0.26 ± 0.14 cm^3 | IC50 [7]: 230 ± 50 nM
